Laboratory results reported in ChEMBL document CHEMBL1155074, “Is quantum mechanics necessary for predicting binding free energy?” (J Med Chem, 2008).
Square brackets hold non-standard residues; d marks the D form. Peptide text beside a SMILES is read from it. * marks the point of attachment. Phe(4-guanidino) = N=C(N)Nc1ccc(C[C@H](N)C(=O)O)cc1; Phe(4-Me) = Cc1ccc(C[C@H](N)C(=O)O)cc1; Phg = N[C@H](C(=O)O)c1ccccc1; Nle = CCCC[C@H](N)C(=O)O; Cbz = O=C(OCc1ccccc1)*; Bz = O=C(c1ccccc1)*; Bn = c1ccc(C*)cc1

Test system: not listed separately
Experiment: Inhibition of West Nile virus NS3 protease

Row | IC50 | SMILES
1 | 71.8 µM | N=C(N)NCCC[C@@H](C=O)NC(=O)[C@H](CC(N)=O)NC(=O)[C@H](CCCCN)NC(=O)c1ccccc1 (Bz-Lys-Asn-Arg-aldehyde)
2 | 108 µM | CCCC[C@H](NC(=O)c1ccccc1)C(=O)N[C@@H](CCCCN)C(=O)N[C@@H](Cc1ccccc1)C(=O)N[C@H](C=O)CCCNC(=N)N (Bz-[Nle]KFR-aldehyde)
3 | 1.9 µM | CCCC[C@H](NC(=O)c1ccccc1)C(=O)N[C@@H](CCCCN)C(=O)N[C@@H](CCCCN)C(=O)N[C@H](C=O)CCCNC(=N)N (Bz-[Nle]KKR-aldehyde)
4 | 0.7 µM | C[C@H](NC(=O)c1ccccc1)C(=O)N[C@@H](CCCCN)C(=O)N[C@@H](CCCNC(=N)N)C(=O)N[C@H](C=O)CCCNC(=N)N (Bz-AKRR-aldehyde)
5 | 11.8 µM | CCCC[C@H](NC(=O)c1ccccc1)C(=O)N[C@@H](CCCCN)C(=O)N[C@@H](CCCNC(=N)N)C(=O)N[C@H](C=O)Cc1ccc(NC(=N)N)cc1 (Bz-[Nle]KR[Phe(4-guanidino)]-aldehyde)
6 | 3.8 µM | CCCC[C@H](NC(=O)c1ccccc1)C(=O)N[C@@H](C)C(=O)N[C@@H](CCCNC(=N)N)C(=O)N[C@H](C=O)CCCNC(=N)N (Bz-[Nle]ARR-aldehyde)
7 | 57.7 µM | CCCC[C@H](NC(=O)c1ccccc1)C(=O)N[C@@H](CCCCN)C(=O)N[C@@H](CCCNC(=N)N)C(=O)N[C@H](C=O)CCCCN (Bz-[Nle]KRK-aldehyde)
8 | 43.1 µM | CCCC[C@H](NC(=O)c1ccccc1)C(=O)N[C@@H](CCCCN)C(=O)N[C@@H](CCCNC(=N)N)C(=O)N[C@H](C=O)Cc1cnc[nH]1 (Bz-[Nle]KRH-aldehyde)
9 | 4.1 µM | CCCC[C@H](NC(=O)c1ccccc1)C(=O)N[C@@H](CCCCN)C(=O)N[C@@H](CCCNC(=N)N)C(=O)N[C@H](C=O)CCCNC(=N)N (Bz-[Nle]KRR-aldehyde)
10 | 1.5 µM | N=C(N)NCCC[C@@H](C=O)NC(=O)[C@H](CCCNC(=N)N)NC(=O)[C@H](CCCCN)NC(=O)c1ccccc1 (Bz-Lys-Arg-Arg-aldehyde)
11 | 110 µM | CCCC[C@H](NC(=O)c1ccccc1)C(=O)N[C@@H](CCCCN)C(=O)N[C@@H](CCCNC(=N)N)C(=O)N[C@H](C=O)Cc1ccccc1 (Bz-[Nle]KRF-aldehyde)
12 | 1.7 µM | CCCC[C@H](NC(=O)c1ccccc1)C(=O)N[C@@H](CCCCN)C(=O)N[C@@H](CCC(N)=O)C(=O)N[C@H](C=O)CCCNC(=N)N (Bz-[Nle]KQR-aldehyde)

Continued, molecule first:

Row | SMILES | IC50
13 | N=C(N)NCCC[C@@H](C=O)NC(=O)[C@H](CCCNC(=N)N)NC(=O)[C@H](CCCCN)Nc1cccnc1 | 1 µM
14 | CCCC[C@H](NC(=O)c1ccccc1)C(=O)N[C@@H](Cc1ccccc1)C(=O)N[C@@H](CCCNC(=N)N)C(=O)N[C@H](C=O)CCCNC(=N)N (Bz-[Nle]FRR-aldehyde) | 4.2 µM
15 | N=C(N)NCCC[C@H](NC(=O)[C@H](CCCCN)NC(=O)c1ccccc1)C(=O)N[C@H](C=O)Cc1ccc(O)cc1 (Bz-Lys-Arg-Tyr-aldehyde) | 14.6 µM
16 | CC(=O)N[C@@H](CCCCN)C(=O)N[C@@H](CCCCN)C(=O)N[C@H](C=O)CCCNC(=N)N (Ac-Lys-Lys-Arg-aldehyde) | 0.4 µM
17 | CC(=O)N[C@@H](CCCCN)C(=O)N[C@@H](CCCNC(=N)N)C(=O)N[C@H](C=O)CCCNC(=N)N (Ac-Lys-Arg-Arg-aldehyde) | 0.5 µM
18 | Cc1ccc(C[C@H](NC(=O)[C@H](CCCCN)NC(=O)c2ccccc2)C(=O)N[C@H](C=O)CCCNC(=N)N)cc1 (Bz-Lys-[Phe(4-Me)]-Arg-aldehyde) | 194 µM
19 | N=C(N)NCCC[C@H](NC(=O)c1ccccc1)C(=O)N[C@H](C=O)CCCCN (Bz-Arg-Lys-aldehyde) | 57.5 µM
20 | N=C(N)NCCC[C@@H](C=O)NC(=O)[C@H](CCCNC(=N)N)NC(=O)c1ccccc1 (Bz-Arg-Arg-aldehyde) | 3.9 µM
21 | CCCC[C@H](NCc1ccccc1)C(=O)N[C@@H](CCCCN)C(=O)N[C@@H](CCCNC(=N)N)C(=O)N[C@H](C=O)Cc1ccc(C#N)cc1 | 62 µM
22 | Cc1ccc(C[C@@H](C=O)NC(=O)[C@H](CCCCNC(=O)OCc2ccccc2)NC(=O)[C@H](CCCCN)NC(=O)c2ccccc2)cc1 (Bz-Lys-Lys(Cbz)-[Phe(4-Me)]-aldehyde) | 43.3 µM
23 | Cc1ccc(C[C@@H](C=O)NC(=O)[C@H](Cc2ccc(OCc3ccccc3)cc2)NC(=O)c2ccccc2)cc1 (Bz-Tyr(Bn)-[Phe(4-Me)]-aldehyde) | 12.7 µM
24 | N=C(N)NCCC[C@H](NC(=O)[C@H](CCCCN)NC(=O)c1ccccc1)C(=O)N[C@H](C=O)Cc1ccc(OCc2ccccc2)cc1 (Bz-Lys-Arg-Tyr(Bn)-aldehyde) | 11.8 µM
25 | N=C(N)NCCC[C@H](NC(=O)[C@H](CCCCN)NC(=O)c1ccccc1)C(=O)N[C@H](C=O)Cc1ccccc1 (Bz-Lys-Arg-Phe-aldehyde) | 71.1 µM
26 | CCCC[C@H](NCc1ccccc1)C(=O)N[C@@H](CCCCN)C(=O)N[C@@H](CCCNC(=N)N)C(=O)N[C@H](C=O)Cc1c[nH]c2ccccc12 | 10 µM
27 | NCCCC[C@H](NC(=O)[C@H](Cc1ccccc1)NC(=O)c1ccccc1)C(=O)N[C@@H](CCCN=C(N)N)C(=O)N[C@H](C=O)CCCN=C(N)N (Bz-FKRR-aldehyde) | 1.2 µM
28 | Cc1ccc(C[C@@H](C=O)NC(=O)[C@H](CCCNC(=N)N)NC(=O)[C@H](CCCCN)NC(=O)c2ccccc2)cc1 (Bz-Lys-Arg-[Phe(4-Me)]-aldehyde) | 17.7 µM
29 | CCCC[C@H](NC(=O)c1ccccc1)C(=O)N[C@@H](CCCCN)C(=O)N[C@@H](CCCNC(=N)N)C(=O)N[C@H](C=O)c1ccccc1 (Bz-[Nle]KR[Phg]-aldehyde) | 90.9 µM
30 | N=C(N)NCCC[C@@H](C=O)NC(=O)[C@H](CCCCNC(=O)OCc1ccccc1)NC(=O)c1ccccc1 (Bz-Lys(Cbz)-Arg-aldehyde) | 436 µM
31 | N=C(N)NCCC[C@@H](C=O)NC(=O)[C@H](CCCCN)NC(=O)c1ccccc1 (Bz-Lys-Arg-aldehyde) | 1.4 µM

Target: Protease (Human immunodeficiency virus 1, UniProt Q9YQ12)
Experiment: Inhibition of HIV1 protease

Chain of Protease (Q9YQ12 whole entry): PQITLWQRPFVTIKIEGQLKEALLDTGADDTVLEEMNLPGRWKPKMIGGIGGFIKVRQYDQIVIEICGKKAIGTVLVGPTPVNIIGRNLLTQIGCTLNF

Row | Ki | SMILES
32 | 0.05 nM | O=C1N(Cc2ccc3ccccc3c2)[C@H](Cc2ccccc2)[C@H](O)[C@@H](O)[C@@H](Cc2ccccc2)N1Cc1ccc2ccccc2c1
33 | 1100 nM | CC(=O)N[C@H](C(=O)N[C@H](C(=O)N[C@@H](CC(C)C)[C@@H](O)CC(=O)N[C@@H](C)C(=O)N[C@@H](CC(C)C)C(O)CC(=O)O)C(C)C)C(C)C (single isomer, unassigned) [ACETYLPEPSTATIN]
34 | 3.2 nM | CC1(C)S[C@H]([C@H](NC(=O)Cc2ccccc2)C(=O)NCc2ccccc2)N[C@H]1C(=O)N[C@H](Cc1ccccc1)[C@H](O)CC(=O)NCc1nc2ccccc2[nH]1
35 | 437 nM | COC(=O)[C@@H](NC(=O)[C@@H](NC(=O)[C@H](C)N1CCC([C@H](C)NC(=O)[C@H](C)N)=C[C@@H](Cc2ccccc2)C1)C(C)C)C(C)C
36 | 1100 nM | CC(C)[C@H](NC(=O)N(C)Cc1ccccn1)C(=O)NC(Cc1ccccc1)[C@H](O)[C@H](O)[C@H](Cc1ccccc1)NC(=O)[C@@H](NC(=O)N(C)Cc1ccccn1)C(C)C (stereo partly specified)
